Data as given in patent US8999940B2 (Ipsen Pharma S.A.S., priority 2008, dated 2015).
Where a SMILES comes first, the peptide text is derived from it. Where no end group is shown, it is not given here. [ ]: non-standard residue; d: D form. The star is where a group is joined. Tic(7-OH) = O=C(O)[C@@H]1Cc2ccc(O)cc2CN1; Desaminotyrosyl = O=C(CCc1ccc(O)cc1)*; Nle = CCCC[C@H](N)C(=O)O; Ac5c = NC1(C(=O)O)CCCC1; Aib = CC(C)(N)C(=O)O

Biological target: T1, human recombinant GIP receptor (Homo sapiens, UniProt P48546)
T1 construct: expressed in transfected cells; host or cells: CHO-K1 clonal cells (membrane preparation)
T1 sequence (P48546 22-466): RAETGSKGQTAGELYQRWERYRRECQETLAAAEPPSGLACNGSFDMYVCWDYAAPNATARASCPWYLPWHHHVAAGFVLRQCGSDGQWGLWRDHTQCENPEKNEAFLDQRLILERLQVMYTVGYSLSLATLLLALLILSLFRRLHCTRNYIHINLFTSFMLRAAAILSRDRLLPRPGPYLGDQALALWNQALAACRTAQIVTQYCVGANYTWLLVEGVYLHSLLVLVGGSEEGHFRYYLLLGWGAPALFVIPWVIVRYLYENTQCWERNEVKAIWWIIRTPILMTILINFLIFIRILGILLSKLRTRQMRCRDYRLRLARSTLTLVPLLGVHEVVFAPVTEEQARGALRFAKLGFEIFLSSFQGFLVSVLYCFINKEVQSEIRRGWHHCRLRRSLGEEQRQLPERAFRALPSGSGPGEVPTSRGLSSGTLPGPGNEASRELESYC
Assay: In vitro hGIP receptor binding assay
Details: not given
Description: A. In Vitro hGIP Receptor Binding Assay […] The incubations were terminated by rapid filtration through GF/C filters (pre-soaked in 0.5% polyethylenimine) using a Brandel filtration manifold. Each tube and filter were then washed three times with 5-ml aliquots of ice-cold buffer.

Compound	Ki
CC[C@H](C)[C@H](NC(=O)[C@H](CO)NC(=O)[C@H](Cc1ccc(O)cc1)NC(=O)[C@H](CC(=O)O)NC(=O)[C@H](CO)NC(=O)[C@@H](NC(=O)[C@H](Cc1ccccc1)NC(=O)[C@@H](NC(=O)CNC(=O)[C@H](CCC(=O)O)NC(=O)C(C)(C)NC(=O)CCc1ccc(O)cc1)[C@@H](C)O)[C@@H](C)CC)C(=O)N[C@@H](C)C(=O)N[C@@H](CCSC)C(=O)N[C@@H](CC(=O)O)C(=O)N[C@@H](CCCCN)C(=O)N[C@H](C(=O)N[C@@H](Cc1c[nH]cn1)C(=O)N[C@@H](CCC(N)=O)C(=O)N[C@@H](CCC(N)=O)C(=O)N[C@@H](CC(=O)O)C(=O)N[C@@H](Cc1ccccc1)C(=O)N[C@H](C(=O)N[C@@H](CC(N)=O)C(=O)N[C@@H](Cc1c[nH]c2ccccc12)C(=O)N[C@@H](CC(C)C)C(=O)N[C@@H](CC(C)C)C(=O)N[C@@H](C)C(=O)N[C@@H](CCC(N)=O)C(=O)N[C@@H](CCCCN)C(N)=O)C(C)C)[C@@H](C)CC [Example 6, (4Hppa^1, Aib^2)hGIP(1-30)-NH2]	1.58 nM
[Tic(7-OH)][Aib]EGTFISDY[Ac5c]IAMDKIHQQDFVNWLLAQKGKKNDWKHNITQH-OH [Example 77, (7HO-Tic^1, Aib^2, A5c^11, His^43)hGIP(1-43)-OH]	4.82 nM
CCCC[C@H](NC(=O)[C@H](C)NC(=O)[C@@H](NC(=O)[C@H](CO)NC(=O)[C@H](Cc1ccc(O)cc1)NC(=O)[C@H](CC(=O)O)NC(=O)[C@H](CO)NC(=O)C1(NC(=O)[C@H](Cc2ccccc2)NC(=O)[C@@H](NC(=O)CNC(=O)[C@H](CCC(=O)O)NC(=O)C(C)(C)NC(=O)CCc2ccc(O)cc2)[C@@H](C)O)CCCC1)[C@@H](C)CC)C(=O)N[C@@H](CC(=O)O)C(=O)N[C@@H](CCCCN)C(=O)N[C@H](C(=O)N[C@@H](Cc1c[nH]cn1)C(=O)N[C@@H](CCC(N)=O)C(=O)N[C@@H](CCC(N)=O)C(=O)N[C@@H](CC(=O)O)C(=O)N[C@@H](Cc1ccccc1)C(=O)N[C@H](C(=O)N[C@@H](CC(N)=O)C(=O)N[C@@H](Cc1c[nH]c2ccccc12)C(=O)N[C@@H](CC(C)C)C(=O)N[C@@H](CC(C)C)C(=O)N[C@@H](C)C(=O)N[C@@H](CCC(N)=O)C(=O)N[C@@H](CCCCN)C(N)=O)C(C)C)[C@@H](C)CC [Example 1, (4Hppa^1, Aib^2, A5c^7, Nle^14)hGIP(1-30)-NH2] (Desaminotyrosyl-[Aib]EGTF[Ac5c]SDYSIA[Nle]DKIHQQDFVNWLLAQK-NH2)	12.6 nM
CCCC[C@H](NC(=O)[C@H](C)NC(=O)[C@@H](NC(=O)C(C)(C)NC(=O)[C@H](Cc1ccc(O)cc1)NC(=O)[C@H](CC(=O)O)NC(=O)[C@H](CO)NC(=O)[C@@H](NC(=O)[C@H](Cc1ccccc1)NC(=O)[C@@H](NC(=O)CNC(=O)[C@H](CCC(=O)O)NC(=O)C(C)(C)NC(=O)CCc1ccc(O)cc1)[C@@H](C)O)[C@@H](C)CC)[C@@H](C)CC)C(=O)N[C@@H](CC(=O)O)C(=O)N[C@@H](CCCCN)C(=O)N[C@H](C(=O)N[C@@H](Cc1c[nH]cn1)C(=O)N[C@@H](CCC(N)=O)C(=O)N[C@@H](CCC(N)=O)C(=O)N[C@@H](CC(=O)O)C(=O)N[C@@H](Cc1ccccc1)C(=O)N[C@H](C(=O)N[C@@H](CC(N)=O)C(=O)N[C@@H](Cc1c[nH]c2ccccc12)C(=O)N[C@@H](CC(C)C)C(=O)N[C@@H](CC(C)C)C(=O)N[C@@H](C)C(=O)N[C@@H](CCC(N)=O)C(=O)N[C@@H](CCCCN)C(N)=O)C(C)C)[C@@H](C)CC [Example 2, (4Hppa^1, Aib^2,11, Nle^14)hGIP(1-30)-NH2] (Desaminotyrosyl-[Aib]EGTFISDY[Aib]IA[Nle]DKIHQQDFVNWLLAQK-NH2)	20.3 nM
CC[C@H](C)[C@H](NC(=O)[C@H](CO)NC(=O)[C@H](Cc1ccc(O)cc1)NC(=O)[C@H](CC(=O)O)NC(=O)[C@H](CO)NC(=O)C1(NC(=O)[C@H](Cc2ccccc2)NC(=O)[C@@H](NC(=O)CNC(=O)[C@H](CCC(=O)O)NC(=O)C(C)(C)NC(=O)CCc2ccc(O)cc2)[C@@H](C)O)CCCC1)C(=O)N[C@@H](C)C(=O)N[C@@H](CCSC)C(=O)N[C@@H](CC(=O)O)C(=O)N[C@@H](CCCCN)C(=O)N[C@H](C(=O)N[C@@H](Cc1c[nH]cn1)C(=O)N[C@@H](CCC(N)=O)C(=O)N[C@@H](CCC(N)=O)C(=O)N[C@@H](CC(=O)O)C(=O)N[C@@H](Cc1ccccc1)C(=O)N[C@H](C(=O)N[C@@H](CC(N)=O)C(=O)N[C@@H](Cc1c[nH]c2ccccc12)C(=O)N[C@@H](CC(C)C)C(=O)N[C@@H](CC(C)C)C(=O)N[C@@H](C)C(=O)N[C@@H](CCC(N)=O)C(=O)N[C@@H](CCCCN)C(N)=O)C(C)C)[C@@H](C)CC [Example 3, (4Hppa^1, Aib^2, A5c^7)hGIP(1-30)-NH2]	5 nM
CCCC[C@H](NC(=O)[C@H](C)NC(=O)[C@@H](NC(=O)C1(NC(=O)[C@H](Cc2ccc(O)cc2)NC(=O)[C@H](CC(=O)O)NC(=O)[C@H](CO)NC(=O)[C@@H](NC(=O)[C@H](Cc2ccccc2)NC(=O)[C@@H](NC(=O)CNC(=O)[C@H](CCC(=O)O)NC(=O)C(C)(C)NC(=O)[C@@H](N)Cc2ccc(O)c(Br)c2)[C@@H](C)O)[C@@H](C)CC)CCCC1)[C@@H](C)CC)C(=O)N[C@@H](CC(=O)O)C(=O)N[C@@H](CCCCN)C(=O)N[C@H](C(=O)N[C@@H](Cc1c[nH]cn1)C(=O)N[C@@H](CCC(N)=O)C(=O)N[C@@H](CCC(N)=O)C(=O)N[C@@H](CC(=O)O)C(=O)N[C@@H](Cc1ccccc1)C(=O)N[C@H](C(=O)N[C@@H](CC(N)=O)C(=O)N[C@@H](Cc1c[nH]c2ccccc12)C(=O)N[C@@H](CC(C)C)C(=O)N[C@@H](CC(C)C)C(=O)N[C@@H](C)C(=O)N[C@@H](CCC(N)=O)C(=O)N[C@@H](CCCCN)C(=O)NCC(=O)N[C@@H](CCCCN)C(=O)N[C@@H](CCCCN)C(=O)N[C@@H](CC(N)=O)C(=O)N[C@@H](CC(=O)O)C(=O)N[C@@H](Cc1c[nH]c2ccccc12)C(=O)N[C@@H](CCCCN)C(=O)N[C@@H](Cc1c[nH]cn1)C(=O)N[C@@H](CC(N)=O)C(=O)N[C@H](C(=O)N[C@H](C(=O)N[C@@H](CCC(N)=O)C(=O)N[C@@H](Cc1c[nH]cn1)C(=O)O)[C@@H](C)O)[C@@H](C)CC)C(C)C)[C@@H](C)CC [Example 71, (3Br-Tyr^1, Aib^2, A5c^11, Nle^14, His^43)hGIP(1-43)-OH]	1.09 nM
CC[C@H](C)[C@H](NC(=O)[C@H](CCCCN)NC(=O)[C@H](CC(=O)O)NC(=O)[C@H](CCSC)NC(=O)[C@H](C)NC(=O)[C@@H](NC(=O)C(C)(C)NC(=O)[C@H](Cc1ccc(O)cc1)NC(=O)[C@H](CC(=O)O)NC(=O)[C@H](CO)NC(=O)[C@@H](NC(=O)[C@H](Cc1ccccc1)NC(=O)[C@@H](NC(=O)CNC(=O)[C@H](CCC(=O)O)NC(=O)C(C)(C)NC(=O)CCc1ccc(O)cc1)[C@@H](C)O)[C@@H](C)CC)[C@@H](C)CC)C(=O)N[C@@H](Cc1c[nH]cn1)C(=O)N[C@@H](CCC(N)=O)C(=O)N[C@@H](CCC(N)=O)C(=O)N[C@@H](CC(=O)O)C(=O)N[C@@H](Cc1ccccc1)C(=O)N[C@H](C(=O)N[C@@H](CC(N)=O)C(=O)N[C@@H](Cc1c[nH]c2ccccc12)C(=O)N[C@@H](CC(C)C)C(=O)N[C@@H](CC(C)C)C(=O)N[C@@H](C)C(=O)N[C@@H](CCC(N)=O)C(=O)N[C@@H](CCCCN)C(N)=O)C(C)C [Example 4, (4Hppa^1, Aib^2,11)hGIP(1-30)-NH2] (Desaminotyrosyl-[Aib]EGTFISDY[Aib]IAMDKIHQQDFVNWLLAQK-NH2)	15.4 nM
CC[C@H](C)[C@H](NC(=O)[C@H](CCCCN)NC(=O)[C@H](CC(=O)O)NC(=O)C1(NC(=O)[C@H](C)NC(=O)[C@@H](NC(=O)C2(NC(=O)[C@H](Cc3ccc(O)cc3)NC(=O)[C@H](CC(=O)O)NC(=O)[C@H](CO)NC(=O)[C@@H](NC(=O)[C@H](Cc3ccccc3)NC(=O)[C@@H](NC(=O)CNC(=O)[C@H](CCC(=O)O)NC(=O)C(C)(C)NC(=O)[C@@H](N)Cc3ccc(O)c(Br)c3)[C@@H](C)O)[C@@H](C)CC)CCCC2)[C@@H](C)CC)CCCC1)C(=O)N[C@@H](Cc1c[nH]cn1)C(=O)N[C@@H](CCC(N)=O)C(=O)N[C@@H](CCC(N)=O)C(=O)N[C@@H](CC(=O)O)C(=O)N[C@@H](Cc1ccccc1)C(=O)N[C@H](C(=O)N[C@@H](CC(N)=O)C(=O)N[C@@H](Cc1c[nH]c2ccccc12)C(=O)N[C@@H](CC(C)C)C(=O)N[C@@H](CC(C)C)C(=O)N[C@@H](C)C(=O)N[C@@H](CCC(N)=O)C(=O)N[C@@H](CCCCN)C(=O)NCC(=O)N[C@@H](CCCCN)C(=O)N[C@@H](CCCCN)C(=O)N[C@@H](CC(N)=O)C(=O)N[C@@H](CC(=O)O)C(=O)N[C@@H](Cc1c[nH]c2ccccc12)C(=O)N[C@@H](CCCCN)C(=O)N[C@@H](Cc1c[nH]cn1)C(=O)N[C@@H](CC(N)=O)C(=O)N[C@H](C(=O)N[C@H](C(=O)N[C@@H](CCC(N)=O)C(=O)N[C@@H](Cc1c[nH]cn1)C(=O)O)[C@@H](C)O)[C@@H](C)CC)C(C)C [Example 72, (3Br-Tyr^1, Aib^2, A5c^11, 14, His^43)hGIP(1-43)-OH]	0.92 nM

Same assay, conditions: membranes of CHO-K1 cells expressing the human recombinant GIP receptor; 0.05 nM [125I]GIP; 100 minutes at 25° C.; read-out: Ki

Compound	Ki
[3Cl-Tyr^1, Aib^2, A5c^11, Cys^43(succinimide-N—(CH2)2—C(O)NH—(CH2)3—O—CH2—CH(20K PEG)-CH2-20K PEG)]hGIP(1-43)-NH2 [Example 102]	42.4 nM
